Measured values taken from ChEMBL document CHEMBL1201862, “PubChem BioAssay data set” (2004).
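Assay format: 96-well plates, 48-hour exposure. Here, GI50 denotes the concentration required for 50% inhibition of growth.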 Active and inactive are the calls of the source. No stated cut-off is given here; in the data, active = GI50 up to about 1.1 µM and inactive = higher.

Legend:
Test in all cases: growth of human tumour cells (NCI), 48 h
OVCAR-3 = test system: OVCAR-3
Hs-578T = test system: Hs-578T
CAKI-1 = test system: CAKI-1
U-251 = test system: U-251
DU-145 = test system: DU-145
M14 = test system: M14
SF-295 = test system: SF-295
CCRF-CEM = test system: CCRF-CEM
A549 = test system: A549
NCI-H23 = test system: NCI-H23
SK-OV-3 = test system: SK-OV-3
SK-MEL-28 = test system: SK-MEL-28
TK-10 = test system: TK-10
BT-549 = test system: BT-549
MOLT-4 = test system: MOLT-4
HOP-62 = test system: HOP-62
UACC-62 = test system: UACC-62
HOP-92 = test system: HOP-92
NCI-H226 = test system: NCI-H226
A498 = test system: A498

SMILES	GI50 (OVCAR-3)	GI50 (Hs-578T)	GI50 (CAKI-1)	GI50 (U-251)	GI50 (DU-145)	GI50 (M14)	GI50 (SF-295)	GI50 (CCRF-CEM)	GI50 (A549)	GI50 (NCI-H23)	GI50 (SK-OV-3)	GI50 (SK-MEL-28)	GI50 (TK-10)	GI50 (BT-549)	GI50 (MOLT-4)	GI50 (HOP-62)	GI50 (UACC-62)	GI50 (HOP-92)	GI50 (NCI-H226)	GI50 (A498)
COc1ccc([C@H]2CC(=O)C[C@H](c3ccc(OC)cc3OC)C23C(=O)c2ccccc2C3=O)c(OC)c1	> 100 µM (inactive)	> 100 µM (inactive)	> 100 µM (inactive)	> 100 µM (inactive)	> 100 µM (inactive)	> 100 µM (inactive)	> 100 µM (inactive)	> 100 µM (inactive)	> 100 µM (inactive)	> 100 µM (inactive)	> 100 µM (inactive)	> 100 µM (inactive)	> 100 µM (inactive)	> 100 µM (inactive)	> 100 µM (inactive)	> 100 µM (inactive)	> 100 µM (inactive)	27.3 µM (inactive)	> 100 µM (inactive)	–
O=c1[nH]cnc2c1ncn2[C@H]1CO[C@@H](CO)[C@@H]1O	> 100 µM (inactive)	> 100 µM (inactive)	> 100 µM (inactive)	> 100 µM (inactive)	> 100 µM (inactive)	–	> 100 µM (inactive)	> 100 µM (inactive)	–	> 100 µM (inactive)	> 100 µM (inactive)	> 100 µM (inactive)	> 100 µM (inactive)	> 100 µM (inactive)	> 100 µM (inactive)	> 100 µM (inactive)	> 100 µM (inactive)	> 100 µM (inactive)	> 100 µM (inactive)	> 100 µM (inactive)
CC(=O)OCCCC(NC(=O)OC(C)(C)C)C(=O)NC(CCCOC(C)=O)C(=O)NC(Cc1ccc([N+](=O)[O-])cc1)C(=O)NCC(=O)OCc1ccccc1 (stereo not drawn)	16.5 µM (inactive)	14 µM (inactive)	18.5 µM (inactive)	18.4 µM (inactive)	16.4 µM (inactive)	12.9 µM (inactive)	11.9 µM (inactive)	29.7 µM (inactive)	20.3 µM (inactive)	14.3 µM (inactive)	26.1 µM (inactive)	17.9 µM (inactive)	18.5 µM (inactive)	18.5 µM (inactive)	37.6 µM (inactive)	19.5 µM (inactive)	15.2 µM (inactive)	18.4 µM (inactive)	16.1 µM (inactive)	–
Cc1ccc(OCC2OC(C#N)C(Oc3ccc(C)cc3)C2Oc2ccc(C)cc2)cc1 (stereo not drawn)	> 100 µM (inactive)	> 100 µM (inactive)	> 100 µM (inactive)	> 100 µM (inactive)	> 100 µM (inactive)	> 100 µM (inactive)	> 100 µM (inactive)	> 100 µM (inactive)	> 100 µM (inactive)	> 100 µM (inactive)	> 100 µM (inactive)	> 100 µM (inactive)	–	> 100 µM (inactive)	> 100 µM (inactive)	> 100 µM (inactive)	> 100 µM (inactive)	–	> 100 µM (inactive)	> 100 µM (inactive)
O=C1/C(=C/c2cccc([N+](=O)[O-])c2)CCCc2ccccc21	13.6 µM (inactive)	3.94 µM (inactive)	16.5 µM (inactive)	8.71 µM (inactive)	15 µM (inactive)	13.8 µM (inactive)	14.6 µM (inactive)	2.93 µM (inactive)	19.9 µM (inactive)	15.8 µM (inactive)	29.4 µM (inactive)	15.3 µM (inactive)	15.7 µM (inactive)	12.5 µM (inactive)	4.95 µM (inactive)	15.6 µM (inactive)	10.1 µM (inactive)	14.4 µM (inactive)	16.2 µM (inactive)	–
Oc1cc(-c2ccc(F)cc2)nc2ncccc12	–	65.2 µM (inactive)	70.5 µM (inactive)	–	74.6 µM (inactive)	61.5 µM (inactive)	–	36.2 µM (inactive)	52.8 µM (inactive)	63.4 µM (inactive)	30.3 µM (inactive)	> 100 µM (inactive)	> 100 µM (inactive)	> 100 µM (inactive)	52.7 µM (inactive)	98.2 µM (inactive)	33.8 µM (inactive)	45.3 µM (inactive)	24.3 µM (inactive)	87.3 µM (inactive)
C[N+]1(CCCC[N+]2(C)CCCCCCC2)CCCCCCC1	> 100 µM (inactive)	0.227 µM (active)	> 100 µM (inactive)	> 100 µM (inactive)	> 100 µM (inactive)	> 100 µM (inactive)	> 100 µM (inactive)	> 100 µM (inactive)	> 100 µM (inactive)	> 100 µM (inactive)	–	> 100 µM (inactive)	> 100 µM (inactive)	> 100 µM (inactive)	> 100 µM (inactive)	> 100 µM (inactive)	> 100 µM (inactive)	77.1 µM (inactive)	> 100 µM (inactive)	> 100 µM (inactive)
O=S(=O)(N/C(=N\O)Nc1ccc(Cl)cc1)c1cc(S(=O)(=O)c2ccccc2)cs1	13.5 µM (inactive)	13.6 µM (inactive)	16.6 µM (inactive)	13.7 µM (inactive)	18 µM (inactive)	15.1 µM (inactive)	15.8 µM (inactive)	11.2 µM (inactive)	24 µM (inactive)	17.9 µM (inactive)	–	16 µM (inactive)	19.2 µM (inactive)	15.5 µM (inactive)	6.87 µM (inactive)	17.5 µM (inactive)	14.8 µM (inactive)	9.62 µM (inactive)	28.6 µM (inactive)	13.8 µM (inactive)
